Test results as given in the NIST ThermoML archive (doi:10.1021/je800110r).
“And” between values parts separate entries of the source, which are not always exact repeats. Equal entries are not always repeated.

Conditions: Liquid, Vibrating tube method

CCCCCCCCCC [decane]
Conditions	mass density
303.16 K, 24314 kPa	740.3 kg/m3
303.16 K, 24549 kPa	740.5 kg/m3
303.16 K, 24602 kPa	740.4 kg/m3
303.16 K, 24630 kPa	740.5 kg/m3
303.16 K, 24682 kPa	740.5 kg/m3
303.16 K, 24710 kPa	740.6 kg/m3
303.16 K, 24755 kPa	740.6 kg/m3
303.16 K, 24776 kPa	740.5 kg/m3
303.16 K, 25088 kPa	740.7 kg/m3
303.16 K, 25114 kPa	740.9 kg/m3
303.16 K, 25147 kPa	740.9 kg/m3
303.16 K, 25173 kPa	740.9 kg/m3
303.16 K, 25208 kPa	740.9 kg/m3
303.16 K, 25234 kPa	740.9 kg/m3
303.16 K, 25263 kPa	740.9 kg/m3
303.16 K, 25293 kPa	741 kg/m3
303.16 K, 25324 kPa	740.9 kg/m3
303.16 K, 25354 kPa	741.1 kg/m3
303.16 K, 25385 kPa	741.1 kg/m3
303.16 K, 25420 kPa	741.1 kg/m3
303.16 K, 25450 kPa	741 kg/m3
303.16 K, 25481 kPa	741.1 kg/m3
303.16 K, 25524 kPa	741.1 kg/m3
303.16 K, 25559 kPa	741.1 kg/m3
303.16 K, 25586 kPa	741.1 kg/m3
303.16 K, 25617 kPa	741.1 kg/m3
303.16 K, 25802 kPa	741.3 kg/m3
303.17 K, 10063 kPa	730.2 kg/m3
303.17 K, 10074 kPa	730.3 kg/m3
313.14 K, 1292 kPa	715.7 kg/m3
313.14 K, 1332 kPa	715.8 kg/m3
313.14 K, 1362 kPa	715.8 kg/m3
313.14 K, 1410 kPa	715.8 kg/m3
313.14 K, 1449 kPa	715.7 kg/m3
313.14 K, 1483 kPa	715.9 kg/m3
313.14 K, 1531 kPa	715.8 kg/m3
313.14 K, 1584 kPa	715.9 kg/m3
313.14 K, 1629 kPa	716 kg/m3
313.14 K, 1669 kPa	716 kg/m3
313.14 K, 1710 kPa	716.1 kg/m3
313.14 K, 1760 kPa	716.1 kg/m3
313.14 K, 1825 kPa	716.1 kg/m3
313.14 K, 1889 kPa	716.2 kg/m3
313.14 K, 1951 kPa	716.3 kg/m3
313.14 K, 2000 kPa	716.3 kg/m3
313.14 K, 2044 kPa	716.3 kg/m3
313.14 K, 2096 kPa	716.3 kg/m3
313.14 K, 2138 kPa	716.4 kg/m3
313.14 K, 2175 kPa	716.4 kg/m3
313.14 K, 2217 kPa	716.4 kg/m3
313.14 K, 2260 kPa	716.5 kg/m3
313.14 K, 2304 kPa	716.5 kg/m3
313.14 K, 2364 kPa	716.6 kg/m3
313.14 K, 2419 kPa	716.7 kg/m3
313.14 K, 2474 kPa	716.7 kg/m3
313.14 K, 2523 kPa	716.8 kg/m3
313.14 K, 2591 kPa	716.7 kg/m3
313.14 K, 2653 kPa	716.8 kg/m3
313.14 K, 2699 kPa	716.8 kg/m3
313.14 K, 2782 kPa	717 kg/m3
313.14 K, 2826 kPa	717.1 kg/m3
313.14 K, 2854 kPa	717 kg/m3
313.14 K, 2900 kPa	716.9 kg/m3
313.14 K, 2941 kPa	717.2 kg/m3
313.14 K, 2970 kPa	717 kg/m3
313.14 K, 3000 kPa	717.1 kg/m3
313.14 K, 3048 kPa	717.2 kg/m3
313.14 K, 3086 kPa	717.2 kg/m3
313.14 K, 3137 kPa	717.3 kg/m3
313.14 K, 3192 kPa	717.3 kg/m3
313.14 K, 3234 kPa	717.4 kg/m3
313.14 K, 3277 kPa	717.4 kg/m3
313.14 K, 3305 kPa	717.4 kg/m3
313.14 K, 3306 kPa	717.5 kg/m3
313.14 K, 3307 kPa	717.5 kg/m3
313.14 K, 3322 kPa	717.5 kg/m3
313.14 K, 3343 kPa	717.4 kg/m3
313.14 K, 3360 kPa	717.4 kg/m3
313.14 K, 3378 kPa	717.5 kg/m3
313.14 K, 3404 kPa	717.4 kg/m3
313.14 K, 3422 kPa	717.5 kg/m3
313.14 K, 3447 kPa	717.5 kg/m3
313.14 K, 3468 kPa	717.6 kg/m3
313.14 K, 3499 kPa	717.6 kg/m3
313.14 K, 3518 kPa	717.6 kg/m3
313.14 K, 3549 kPa	717.7 kg/m3
313.14 K, 3576 kPa	717.6 kg/m3
313.14 K, 3598 kPa	717.8 kg/m3
313.14 K, 3629 kPa	717.7 kg/m3
313.14 K, 3654 kPa	717.7 kg/m3
313.14 K, 3674 kPa	717.8 kg/m3
313.14 K, 3693 kPa	717.8 kg/m3
313.14 K, 3713 kPa	717.8 kg/m3
313.14 K, 3739 kPa	717.8 kg/m3
313.14 K, 3768 kPa	717.8 kg/m3
313.14 K, 3821 kPa	717.9 kg/m3
313.14 K, 3843 kPa	718 kg/m3
313.14 K, 3850 kPa	717.8 kg/m3
313.14 K, 3853 kPa	717.9 kg/m3
313.14 K, 3854 kPa	717.9 kg/m3
313.14 K, 3856 kPa	717.8 kg/m3
313.14 K, 3858 kPa	717.9 kg/m3
313.14 K, 3860 kPa	717.9 kg/m3
313.14 K, 3862 kPa	717.9 kg/m3
313.14 K, 3864 kPa	717.9 kg/m3
313.14 K, 3865 kPa	717.9 kg/m3 and 717.8 kg/m3
313.14 K, 3876 kPa	717.9 kg/m3
313.14 K, 3895 kPa	718 kg/m3
313.14 K, 3915 kPa	718 kg/m3
313.14 K, 3933 kPa	718.1 kg/m3
313.14 K, 3949 kPa	717.9 kg/m3
313.14 K, 3970 kPa	718 kg/m3
313.14 K, 3989 kPa	718.1 kg/m3
313.14 K, 4003 kPa	718.1 kg/m3
313.14 K, 4028 kPa	718.1 kg/m3
313.14 K, 4048 kPa	718 kg/m3
313.14 K, 4070 kPa	718.1 kg/m3
313.14 K, 4098 kPa	718.1 kg/m3
313.14 K, 4121 kPa	718.1 kg/m3
313.14 K, 4141 kPa	718.2 kg/m3
313.14 K, 4159 kPa	718.2 kg/m3
313.14 K, 4186 kPa	718.2 kg/m3
313.14 K, 4203 kPa	718.3 kg/m3
313.14 K, 4224 kPa	718.3 kg/m3
313.14 K, 4245 kPa	718.3 kg/m3
313.14 K, 4267 kPa	718.3 kg/m3
313.14 K, 4287 kPa	718.2 kg/m3
313.14 K, 4309 kPa	718.3 kg/m3
313.14 K, 4328 kPa	718.3 kg/m3
313.14 K, 4357 kPa	718.4 kg/m3
313.14 K, 4386 kPa	718.4 kg/m3
313.14 K, 4407 kPa	718.4 kg/m3
313.14 K, 4434 kPa	718.3 kg/m3
313.14 K, 4451 kPa	718.4 kg/m3
313.14 K, 4477 kPa	718.5 kg/m3
313.14 K, 4494 kPa	718.5 kg/m3
313.14 K, 4509 kPa	718.5 kg/m3
